According to patent publication US12343326B2, “Psychoactive medicines and their use for treating psychiatric and neurological conditions and disorders” (Transcend Therapeutics, Inc., priority 2021, dated 2025):

Assays:
Assay in all cases: β-arrestin based GPCR screen (PathHunter / GPCRmax), antagonist mode
168 GPCRs [1] = molecular target: 168 GPCRs (Homo sapiens, UniProt O95977)
168 GPCRs [2] = molecular target: 168 GPCRs (Homo sapiens, UniProt P14416); conditions: DRD2L
168 GPCRs [3] = molecular target: 168 GPCRs (Homo sapiens, UniProt P18825); conditions: ADRA2C, Antagonist
Chain of 168 GPCRs (Homo sapiens, UniProt P18825) (P18825 whole entry): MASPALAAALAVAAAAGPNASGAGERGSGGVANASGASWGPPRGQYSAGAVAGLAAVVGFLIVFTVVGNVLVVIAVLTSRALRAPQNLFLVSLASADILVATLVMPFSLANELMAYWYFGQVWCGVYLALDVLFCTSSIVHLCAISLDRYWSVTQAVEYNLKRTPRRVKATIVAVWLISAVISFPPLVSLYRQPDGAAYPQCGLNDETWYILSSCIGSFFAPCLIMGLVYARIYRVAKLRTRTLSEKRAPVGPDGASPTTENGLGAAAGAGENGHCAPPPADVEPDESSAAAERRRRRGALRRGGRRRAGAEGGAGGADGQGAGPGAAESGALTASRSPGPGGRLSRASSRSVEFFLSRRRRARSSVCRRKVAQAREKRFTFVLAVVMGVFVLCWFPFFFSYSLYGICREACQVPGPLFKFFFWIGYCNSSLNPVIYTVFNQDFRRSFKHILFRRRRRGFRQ

168 GPCRs [4] = molecular target: 168 GPCRs (Homo sapiens, UniProt P21462)
168 GPCRs [5] = molecular target: 168 GPCRs (Homo sapiens, UniProt P21917)
Chain of 168 GPCRs (Homo sapiens, UniProt P21917) (P21917 whole entry): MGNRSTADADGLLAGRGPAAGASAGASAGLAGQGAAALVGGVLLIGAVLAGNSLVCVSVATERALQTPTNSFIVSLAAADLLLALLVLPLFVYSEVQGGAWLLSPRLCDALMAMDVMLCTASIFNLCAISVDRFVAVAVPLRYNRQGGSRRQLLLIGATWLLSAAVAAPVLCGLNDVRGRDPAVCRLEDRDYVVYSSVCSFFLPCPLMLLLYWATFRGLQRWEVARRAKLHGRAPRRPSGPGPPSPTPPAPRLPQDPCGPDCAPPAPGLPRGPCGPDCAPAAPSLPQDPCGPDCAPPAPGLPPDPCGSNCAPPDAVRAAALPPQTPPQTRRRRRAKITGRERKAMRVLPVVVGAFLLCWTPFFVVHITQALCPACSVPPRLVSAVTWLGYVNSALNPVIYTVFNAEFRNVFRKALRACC

168 GPCRs [6] = molecular target: 168 GPCRs (Homo sapiens, UniProt P25021)
168 GPCRs [7] = molecular target: 168 GPCRs (Homo sapiens, UniProt P25103)
168 GPCRs [8] = molecular target: 168 GPCRs (Homo sapiens, UniProt P28566); conditions: HTR1E
Chain of 168 GPCRs (Homo sapiens, UniProt P28566) (P28566 whole entry): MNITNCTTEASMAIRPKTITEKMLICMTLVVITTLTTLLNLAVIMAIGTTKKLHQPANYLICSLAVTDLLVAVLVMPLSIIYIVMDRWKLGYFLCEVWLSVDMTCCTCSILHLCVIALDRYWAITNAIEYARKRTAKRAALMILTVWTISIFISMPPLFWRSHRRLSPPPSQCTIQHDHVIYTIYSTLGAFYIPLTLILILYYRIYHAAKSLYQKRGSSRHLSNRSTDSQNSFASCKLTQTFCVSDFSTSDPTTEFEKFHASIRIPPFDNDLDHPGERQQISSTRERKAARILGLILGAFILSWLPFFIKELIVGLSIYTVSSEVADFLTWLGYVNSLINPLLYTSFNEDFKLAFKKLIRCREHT

168 GPCRs [9] = molecular target: 168 GPCRs (Homo sapiens, UniProt P30874)
Chain of 168 GPCRs (Homo sapiens, UniProt P30874) (P30874 whole entry): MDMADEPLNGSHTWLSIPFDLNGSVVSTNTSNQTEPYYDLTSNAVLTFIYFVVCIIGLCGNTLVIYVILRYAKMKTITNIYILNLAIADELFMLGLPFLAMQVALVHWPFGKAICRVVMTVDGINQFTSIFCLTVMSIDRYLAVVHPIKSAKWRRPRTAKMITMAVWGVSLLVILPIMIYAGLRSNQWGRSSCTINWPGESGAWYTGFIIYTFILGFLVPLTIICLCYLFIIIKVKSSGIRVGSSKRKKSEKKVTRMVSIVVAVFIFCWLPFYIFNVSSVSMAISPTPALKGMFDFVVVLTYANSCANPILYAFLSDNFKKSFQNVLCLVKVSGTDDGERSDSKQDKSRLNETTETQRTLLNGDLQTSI

168 GPCRs [10] = molecular target: T1, 168 GPCRs (Homo sapiens, UniProt P32248); conditions: CCR7, Antagonist
T1 sequence (P32248 25-378): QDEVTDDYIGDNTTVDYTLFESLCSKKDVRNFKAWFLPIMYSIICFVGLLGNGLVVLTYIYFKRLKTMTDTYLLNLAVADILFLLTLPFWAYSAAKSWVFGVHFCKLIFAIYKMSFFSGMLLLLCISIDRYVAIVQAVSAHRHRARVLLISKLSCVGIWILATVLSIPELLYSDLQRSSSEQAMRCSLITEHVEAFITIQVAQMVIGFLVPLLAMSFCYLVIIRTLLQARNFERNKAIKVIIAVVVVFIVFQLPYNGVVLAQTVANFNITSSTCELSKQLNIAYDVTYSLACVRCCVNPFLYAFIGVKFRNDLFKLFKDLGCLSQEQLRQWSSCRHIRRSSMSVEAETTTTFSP

168 GPCRs [11] = molecular target: 168 GPCRs (Homo sapiens, UniProt P32302)
Chain of 168 GPCRs (Homo sapiens, UniProt P32302) (P32302 whole entry): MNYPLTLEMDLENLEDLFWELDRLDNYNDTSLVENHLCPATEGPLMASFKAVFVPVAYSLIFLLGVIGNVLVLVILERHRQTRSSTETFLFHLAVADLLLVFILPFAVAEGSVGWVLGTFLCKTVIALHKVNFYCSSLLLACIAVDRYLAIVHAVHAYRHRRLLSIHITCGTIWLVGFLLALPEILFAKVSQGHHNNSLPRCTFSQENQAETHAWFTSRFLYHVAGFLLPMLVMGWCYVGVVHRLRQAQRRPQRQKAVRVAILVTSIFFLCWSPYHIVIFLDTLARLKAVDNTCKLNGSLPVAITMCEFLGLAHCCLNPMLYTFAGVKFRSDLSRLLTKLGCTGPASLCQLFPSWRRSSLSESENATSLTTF

168 GPCRs [12] = molecular target: 168 GPCRs (Homo sapiens, UniProt P43116)
Chain of 168 GPCRs (Homo sapiens, UniProt P43116) (P43116 whole entry): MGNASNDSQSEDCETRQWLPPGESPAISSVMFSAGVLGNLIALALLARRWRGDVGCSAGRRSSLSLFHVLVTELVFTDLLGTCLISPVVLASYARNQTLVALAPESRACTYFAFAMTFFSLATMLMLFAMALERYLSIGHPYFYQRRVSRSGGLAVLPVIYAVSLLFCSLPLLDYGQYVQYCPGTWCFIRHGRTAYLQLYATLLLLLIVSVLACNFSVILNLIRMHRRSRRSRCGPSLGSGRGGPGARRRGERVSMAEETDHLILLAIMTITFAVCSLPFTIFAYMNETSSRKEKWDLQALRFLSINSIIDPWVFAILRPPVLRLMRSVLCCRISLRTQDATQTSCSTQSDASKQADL

168 GPCRs [13] = molecular target: 168 GPCRs (Homo sapiens, UniProt P46663); conditions: BDKRB1, Antagonist
Chain of 168 GPCRs (Homo sapiens, UniProt P46663) (P46663 whole entry): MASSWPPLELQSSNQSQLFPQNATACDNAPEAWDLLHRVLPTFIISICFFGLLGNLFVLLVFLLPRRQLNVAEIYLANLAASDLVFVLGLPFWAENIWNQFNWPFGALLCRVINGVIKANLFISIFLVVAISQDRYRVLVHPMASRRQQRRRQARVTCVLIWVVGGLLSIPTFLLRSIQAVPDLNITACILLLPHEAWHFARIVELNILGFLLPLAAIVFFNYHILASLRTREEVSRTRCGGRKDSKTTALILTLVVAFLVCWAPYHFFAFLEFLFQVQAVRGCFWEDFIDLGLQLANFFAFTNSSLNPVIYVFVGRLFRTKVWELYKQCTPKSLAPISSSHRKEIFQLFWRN

168 GPCRs [14] = molecular target: 168 GPCRs (Homo sapiens, UniProt P51686); conditions: CCR9, Antagonist
Chain of 168 GPCRs (Homo sapiens, UniProt P51686) (P51686 whole entry): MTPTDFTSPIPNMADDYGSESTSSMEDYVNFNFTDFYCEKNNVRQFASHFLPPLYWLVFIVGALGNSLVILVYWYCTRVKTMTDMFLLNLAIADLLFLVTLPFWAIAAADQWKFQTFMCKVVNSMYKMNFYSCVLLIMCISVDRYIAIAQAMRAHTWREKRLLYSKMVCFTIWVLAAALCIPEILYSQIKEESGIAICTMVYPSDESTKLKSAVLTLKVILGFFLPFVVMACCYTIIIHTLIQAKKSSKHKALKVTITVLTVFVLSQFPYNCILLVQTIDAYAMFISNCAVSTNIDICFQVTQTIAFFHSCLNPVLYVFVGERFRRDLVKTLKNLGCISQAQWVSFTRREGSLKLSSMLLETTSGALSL

168 GPCRs [15] = molecular target: 168 GPCRs (Homo sapiens, UniProt P61073)
Chain of 168 GPCRs (Homo sapiens, UniProt P61073) (P61073 whole entry): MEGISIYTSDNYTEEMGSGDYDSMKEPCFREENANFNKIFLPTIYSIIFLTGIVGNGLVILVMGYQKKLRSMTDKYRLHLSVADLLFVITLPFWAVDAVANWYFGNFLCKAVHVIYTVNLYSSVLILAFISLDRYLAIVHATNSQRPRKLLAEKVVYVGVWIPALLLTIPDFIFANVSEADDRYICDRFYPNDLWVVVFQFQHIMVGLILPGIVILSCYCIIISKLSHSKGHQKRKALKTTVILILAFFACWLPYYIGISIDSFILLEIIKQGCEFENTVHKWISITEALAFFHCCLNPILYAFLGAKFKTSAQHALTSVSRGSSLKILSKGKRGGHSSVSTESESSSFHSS

168 GPCRs [16] = molecular target: 168 GPCRs (Homo sapiens, UniProt Q13324)
Chain of 168 GPCRs (Homo sapiens, UniProt Q13324) (Q13324 whole entry): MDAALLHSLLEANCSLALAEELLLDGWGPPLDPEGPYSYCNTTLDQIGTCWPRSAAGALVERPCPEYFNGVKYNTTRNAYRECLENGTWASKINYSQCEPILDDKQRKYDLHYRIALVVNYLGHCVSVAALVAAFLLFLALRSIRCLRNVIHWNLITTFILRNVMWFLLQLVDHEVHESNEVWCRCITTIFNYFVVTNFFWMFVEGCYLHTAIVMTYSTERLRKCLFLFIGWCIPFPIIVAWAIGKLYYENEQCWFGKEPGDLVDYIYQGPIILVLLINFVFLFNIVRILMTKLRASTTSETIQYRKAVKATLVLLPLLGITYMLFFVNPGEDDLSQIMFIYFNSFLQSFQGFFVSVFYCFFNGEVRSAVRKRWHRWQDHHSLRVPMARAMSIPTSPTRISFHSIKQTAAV

168 GPCRs [17] = molecular target: 168 GPCRs (Homo sapiens, UniProt Q15077)
Chain of 168 GPCRs (Homo sapiens, UniProt Q15077) (Q15077 whole entry): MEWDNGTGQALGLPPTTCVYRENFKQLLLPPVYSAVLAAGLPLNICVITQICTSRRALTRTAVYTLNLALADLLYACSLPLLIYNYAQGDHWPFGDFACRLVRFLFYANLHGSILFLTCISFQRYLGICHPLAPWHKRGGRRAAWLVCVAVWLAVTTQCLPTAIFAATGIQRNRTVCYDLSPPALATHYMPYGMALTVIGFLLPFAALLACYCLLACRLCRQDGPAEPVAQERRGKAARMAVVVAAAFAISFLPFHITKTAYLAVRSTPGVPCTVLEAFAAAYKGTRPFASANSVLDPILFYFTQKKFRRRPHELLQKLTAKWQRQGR

168 GPCRs [18] = molecular target: 168 GPCRs (Homo sapiens, UniProt Q96G91)
168 GPCRs [19] = molecular target: 168 GPCRs (Homo sapiens, UniProt Q99500)
168 GPCRs [20] = molecular target: 168 GPCRs (Homo sapiens, UniProt Q9UKP6)

Chain of 168 GPCRs (Homo sapiens, UniProt P14416) (P14416 whole entry): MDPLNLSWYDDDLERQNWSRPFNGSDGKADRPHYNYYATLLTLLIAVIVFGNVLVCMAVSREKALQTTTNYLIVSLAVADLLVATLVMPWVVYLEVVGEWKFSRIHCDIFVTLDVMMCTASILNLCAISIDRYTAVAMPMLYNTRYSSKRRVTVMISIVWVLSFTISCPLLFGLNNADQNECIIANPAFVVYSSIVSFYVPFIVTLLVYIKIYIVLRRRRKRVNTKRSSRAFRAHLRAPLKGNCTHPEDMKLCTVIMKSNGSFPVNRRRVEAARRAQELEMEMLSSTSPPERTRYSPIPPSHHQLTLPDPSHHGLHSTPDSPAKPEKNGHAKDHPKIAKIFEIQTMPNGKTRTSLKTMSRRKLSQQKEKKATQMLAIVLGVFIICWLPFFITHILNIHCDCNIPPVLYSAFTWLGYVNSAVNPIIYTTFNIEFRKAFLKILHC

CNC(C)C(=O)c1ccc2c(c1)OCO2 (stereo not shown) [methylone, 3,4-methylenedioxy-N-methylcathinone]
activity at 10 µM (168 GPCRs [1]; EDG6, Antagonist mode, 10 uM): 7.8% | activity at 1 µM (168 GPCRs [1]; EDG6, Antagonist, 1 uM): 13.2% | activity at 10 µM (168 GPCRs [2]; Antagonist mode, 10 uM): 0.1% | activity at 1 µM (168 GPCRs [2]; Antagonist, 1 uM): 1.1% | activity at 1 µM (168 GPCRs [3]; 1 uM): -4.3% | activity at 10 µM (168 GPCRs [3]; 10 uM): 17.6% | activity at 10 µM (168 GPCRs [4]; FPR1, Antagonist mode, 10 uM): -11.4% | activity at 1 µM (168 GPCRs [4]; FPR1, Antagonist, 1 uM): -4.9% | activity at 10 µM (168 GPCRs [5]; DRD4, Antagonist mode, 10 uM): 12.2% | activity at 1 µM (168 GPCRs [5]; DRD4, Antagonist, 1 uM): 8.4% | activity at 10 µM (168 GPCRs [6]; HRH2, Antagonist mode, 10 uM): 8.1% | activity at 1 µM (168 GPCRs [6]; HRH2, Antagonist, 1 uM): 7.1% | activity at 10 µM (168 GPCRs [7]; TACR1, Antagonist mode, 10 uM): 8.9% | activity at 1 µM (168 GPCRs [7]; TACR1, Antagonist, 1 uM): 15.2% | activity at 10 µM (168 GPCRs [8]; Antagonist mode, 10 uM): 13.2% | activity at 1 µM (168 GPCRs [8]; Antagonist, 1 uM): 7.6% | activity at 10 µM (168 GPCRs [9]; SSTR2, Antagonist mode, 10 uM): -4.2% | activity at 1 µM (168 GPCRs [9]; SSTR2, Antagonist, 1 uM): -0.4% | activity at 1 µM (168 GPCRs [10]; 1 uM): -8.3% | activity at 10 µM (168 GPCRs [10]; 10 uM): -3.4% | activity at 10 µM (168 GPCRs [11]; CXCR5, Antagonist mode, 10 uM): -15.1% | activity at 1 µM (168 GPCRs [11]; CXCR5, Antagonist, 1 uM): -4.3% | activity at 10 µM (168 GPCRs [12]; PTGER2, Antagonist mode, 10 uM): -4.4% | activity at 1 µM (168 GPCRs [12]; PTGER2, Antagonist, 1 uM): 12.7% | activity at 1 µM (168 GPCRs [13]; 1 uM): 2.8% | activity at 10 µM (168 GPCRs [13]; 10 uM): 12.1% | activity at 1 µM (168 GPCRs [14]; 1 uM): 2.9% | activity at 10 µM (168 GPCRs [14]; 10 uM): -9.9% | activity at 10 µM (168 GPCRs [15]; CXCR4, Antagonist mode, 10 uM): -4.2% | activity at 1 µM (168 GPCRs [15]; CXCR4, Antagonist, 1 uM): 10.7% | activity at 10 µM (168 GPCRs [16]; CRHR2, Antagonist mode, 10 uM): -0.3% | activity at 1 µM (168 GPCRs [16]; CRHR2, Antagonist, 1 uM): -2% | activity at 10 µM (168 GPCRs [17]; P2RY6, Antagonist mode, 10 uM): 2.6% | activity at 1 µM (168 GPCRs [17]; P2RY6, Antagonist, 1 uM): 6.5% | activity at 10 µM (168 GPCRs [18]; P2RY11, Antagonist mode, 10 uM): 6.6% | activity at 1 µM (168 GPCRs [18]; P2RY11, Antagonist, 1 uM): 2.7% | activity at 10 µM (168 GPCRs [19]; EDG3, Antagonist mode, 10 uM): 13.6% | activity at 1 µM (168 GPCRs [19]; EDG3, Antagonist, 1 uM): 25.8% | activity at 10 µM (168 GPCRs [20]; UTR2, Antagonist mode, 10 uM): 4.2% | activity at 1 µM (168 GPCRs [20]; UTR2, Antagonist, 1 uM): -2.1%
